Read-outs that look alike come from different tables or passages of the source.
Key:
[1] = tested on: T. cruzi intracellular amastigotes; assay: Intracellular anti-Trypanosoma cruzi image-based assay (amastigotes); assay type: cell-based; conditions: for IC50: Trypanosoma cruzi
[2] = tested on: HEK293 cells
[3] = tested on: HepG2; conditions: cited from earlier work
[4] = tested on: L. infanium (macrophages); design: method as in Pbox supporting information; conditions: ref Pbox supporting information; cited from earlier work
[5] = tested on: barber's pole worm; design: method as in PMID 27524698; conditions: cited from earlier work
[6] = tested on: T. brucei rhodesiense; conditions: ref Pbox supporting information; read-out: T .b. rohdensie Pbox IC50; cited from earlier work
[7] = tested on: T. brucei brucei; conditions: ref Pbox supporting information; read-out: T.b. brucei Pbox IC50; cited from earlier work
[8] = tested on: T. cruzi C4 β-galactosidase reporter parasite in MRC 5SV2 host cells; conditions: ref Pbox supporting information; read-out: T. cruzi Pbox IC50; cited from earlier work
[9] = tested on: L. donovani MHOM/IN/80/DD8 intracellular amastigotes; assay: Leishmania donovani intracellular amastigote assay in THP-1 cells; assay type: cell-based; conditions: Leishmania donovani
[10] = tested on: NF54-pfs16-LUC-GFP stage IV gametocytes; assay: Plasmodium falciparum late stage gametocyte (LSG) image-based assay; assay type: cell-based
[11] = in vitro; conditions: human
[12] = tested on: 3T3 host cells; assay: T. cruzi assay, activity against 3T3 host cells; assay type: cell-based; conditions: reference compound set; IA = inactive at 16.4 μM
How it was run: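 3T3 cells were seeded on collagen-coated plates, incubated 24 h at 37 °C, infected with T. cruzi at MOI 5:1, and washed free of extracellular parasites after a further 24 h. Following 48 h compound exposure, cells were fixed, stained with Hoechst 33342 and HCS CellMask Green, and imaged by high-content analysis.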

[13] = tested on: Plasmodium falciparum 3D7 asexual blood stage; assay: microbe, parasite or virus in culture
[14] = tested on: T. b. brucei 427 bloodstream trypanosomes; assay: T. b. brucei resazurin viability assay; assay type: cell-based, Trypanosoma brucei brucei; conditions: for IC50: Trypanosoma brucei
[15] = tested on: Candida albicans biofilm formation; design: method as in PMID 27795383; conditions: cited from earlier work
[16] = tested on: Plasmodium falciparum 3D7 asexual blood stage
[17] = tested on: HEK293 cells; assay: HEK293 resazurin cell cytotoxicity assay; conditions: Homo sapiens, HEK293, read-out: HEK % Inhibition 20uM/IC50 Discovery Biology (IA)
[18] = tested on: Plasmodium cGMP-dependent protein kinase (PfPKG); design: method as in PMID 16325279, PMID 20643897; conditions: cited from earlier work

SMILES: Cc1cc(C2=NOC(c3cc(Cl)c(F)c(Cl)c3)(C(F)(F)F)C2)ccc1C(=O)NCc1ccc2c(c1)C(C)(C)OB2O (stereo not shown) [MMV687776]
- selectivity index (SI) T. cruzi versus HEK293 ([1]; HEK293): > 8
- selectivity index (SI) T. cruzi versus HEPG2 ([1]; HEPG2 (PBox data)): 4.3
- IC50 ([1]; PBox compounds, intracellular amastigotes, 48 h exposure, read-out: IC50 T. cruzi (Discovery Biology)): 2390 nM
- activity in the HEK293 cytotoxicity assay [2]: did not display activity
- HepG2 PBox CC20 μMc [3]: 10.9 µM
- IC50 [3]: 10.9 µM

SMILES: CCc1nn(C)c(C(=O)NCc2ccc(Oc3ccc(C)cc3)cc2)c1Cl [MMV688934, Tolfenpyrad]
- IC50 [4]: 45.6 µM
- activity against the helminth barber's pole worm [5]: activity
- IC50 [6]: 20.4 µM
- IC50 [7]: 33 µM
- IC50 [8]: 5.35 µM

SMILES: CO[C@H]1/C=C/O[C@@]2(C)Oc3c(C)c(O)c4c(O)c(c(/C=N/N5CCN(C)CC5)c(O)c4c3C2=O)NC(=O)/C(C)=C\C=C\[C@H](C)[C@H](O)[C@@H](C)[C@@H](O)[C@@H](C)[C@H](OC(C)=O)[C@@H]1C [Rifampin, reference compound]
- IC50 ([9]; THP-1, read-out: IC50 L. donovani n = 1, reference compound set, first test, IA = inactive at 20 μM): > 20 µM
- IC50 ([9]; THP-1, read-out: IC50 L. donovani n = 2, reference compound set, second test, IA = inactive at 20 μM): > 20 µM
- inhibition at 20 µM ([10]; Plasmodium falciparum, NF54, read-out: percent inhibition at the top screening dose, P. falciparum NF54 LSG): 78%
- IC50 at 72 h [11]: > 20 µM
- IC50 [12]: > 16.4 µM
- IC50 ([1]; reference compound set, IA = inactive at 16.4 μM, read-out: IC50 T. cruzi intracellular amastigotes): > 16400 nM
- IC50 ([13]; 3D7, read-out: IC50 P. falciparum 3D7 ABS): 2230 nM
- IC50 ([14]; reference compound set, IA = inactive at 20 μM, read-out: IC50 T. brucei brucei trypomastigotes): > 20000 nM

SMILES: Cc1[nH]c2ccccc2c1C(c1cccs1)N1CCN(C)CC1 (stereo not shown) [MMV688768]
- IC50 ([9]; THP-1, intracellular amastigotes, values marked *, read-out: L, donovani Discovery Biology IC50 µM): 5.4 µM
- activity against Candida albicans biofilm formation [15]: inhibitory activity
- IC50 ([10]; Plasmodium falciparum, NF54, read-out: Antiplasmodial IC50 (GAM / LSG), PBox compounds, stage IV gametocytes, single determination): 4.7 µM
- activity in the Discovery Biology ABS assay [16]: not ABS activity
- IC50 [17]: > 20 µM
- selectivity index (SI) T. brucei brucei versus HEK293 ([14]; HEK293): > 13
- selectivity index (SI) T. brucei brucei versus HEPG2 ([14]; HEPG2 (PBox data)): > 6
- IC50 ([14]; PBox compounds, read-out: IC50 T. brucei brucei (Discovery Biology)): 1500 nM
- HepG2 PBox CC20 μMc ([3]; ref Pbox supporting information): 8.5 µM

SMILES: CN1CCC(c2cc(-c3ccncc3)c(-c3ccc(F)cc3)[nH]2)CC1 [MMV688703]
- IC50 [18]: 8.5 nM
- activity in the Discovery Biology stage IV gametocyte (LSG) assay [10]: does not affect
- IC50 ([13]; 3D7, read-out: Antiplasmodial IC50 (ABS), PBox compounds, P. falciparum 3D7): 3160 nM
